From patent US8877261B2, “Anti-redness active agent and cosmetic compositions comprising same” (Laboratoires Expanscience, priority 2011, dated 2014)
Marks after values point to notes of the source that are not given here.

What was measured:
interleukin-8 (IL8) = test: Release of IL8 by keratinocytes induced by PMA (ELISA); type: cell-based, human; conditions: dexamethasone 10^−7 M, ARG 0.2% + LUP 0.02%
Protocol: Human keratinocytes (NCTC 2544 cell line) were preincubated for 24 hours with the arabinogalactan (ARG)/lupin peptides (LUP) active agents at concentrations of 0.2%/0.02% or with the reference molecule, dexamethasone.
Inflammation was then induced by treatment with PMA for 24 hours, always in the presence of the active agents or the reference molecule.
At the end of incubation, the quantities of interleukin-8 (IL8) present in the culture supernatants were measured by ELISA.
The significance of the results was verified by a single-factor analysis of variance followed by a Tukey's test.
The percentage of inhibition is calculated according to the following formula: [(stimulated PMA)−(active treatment)/(stimulated PMA)]*100 Results (Table 10)

MMP9 = test: Gene expression of MMP9 in keratinocytes induced by PMA (real-time PCR); type: cell-based, human; conditions: NHEK, total 40 hours
Protocol: The effect of the active agents was sought in a basal condition (to study MMP2) or in a preventive manner on a cell layer having been subjected to inflammatory stress induced by PMA (for MMP9).
Normal human epidermal keratinocytes (NHEK) were preincubated for 24 hours in the presence of the arabinogalactan (ARG)/lupin peptides (LUP) active agents at concentrations of 0.2%/0.02%. PMA was then added for a total treatment period of 40 hours.
(§1) At the end of the treatment, the culture supernatants were removed and total RNA was extracted, analyzed and assayed. The neo-synthesized cDNA relating to the genes of interest (MMP2, MMP9) or to the reference genes were amplified selectively by iQ5 real-time PCR (Biorad) using SybrGreen technology.
(§2) By calculating ΔCt (Ctgene of interest−Ctreference gene) and ΔΔCt (ΔCtcontrol−ΔCttreated) the relative quantity of the gene of interest was measured: RQ=(1+E)^ΔΔCt; when E (effectiveness) is equal to 1, then RQ=2^ΔΔCt.
The significance of the results was verified for the ΔCt values by a single-factor analysis of variance followed by a Dunnett's test (for MMP2) or a Tukey's test (for MMP9).
The percentage of inhibition is thus calculated for MMP9: [(RQ(PMA stimulated)−RQ(active treatment))/RQ(PMA stimulated)]*100 Results

kallikrein-5 (KLK5) = test: Gene expression of kallikrein-5 (KLK5) induced by calcitriol in keratinocytes (real-time PCR); type: cell-based, human
Protocol: (§3) Normal human epidermal keratinocytes (NHEK) were cultured in differentiation culture medium supplemented with Ca^++. […] At the end of the treatment, the culture supernatants were removed and total RNA was extracted, analyzed and assayed. The neo-synthesized cDNA relating to the genes of interest (LL37 and KLK5) or to the reference genes were amplified selectively by iQ5 real-time PCR (Biorad) using SybrGreen technology. […] By calculating ΔCt (Ctgene of interest−Ctreference gene) and ΔΔCt (ΔCtcontrol−ΔCttreated) the relative quantity of the gene of interest was measured: […] The significance of the results was verified for the ΔCt values by a single-factor analysis of variance followed by a Tukey's test. The percentage of inhibition of the expression of LL37 and KLK5 is thus calculated: [(RQ(stim calcitriol)−RQ(active treatment))/RQ(stim calcitriol)]*100 Results

cathelicidin (LL37) = test: Gene expression of cathelicidin (LL37) induced by calcitriol in keratinocytes (real-time PCR); type: cell-based, human; conditions: for Mean ΔCt (CtLL37 − CtGAPDH) / LL37 expression (relative quantity) / ΔΔCt (LL37) / Percentage of inhibition (LL37 expression): NHEK, 24 hours, ARG 0.2%, LUP 0.02%; for Mean ΔCt (CtLL37 − CtGAPDH) / LL37 expression (relative quantity) / ΔΔCt (LL37): with calcitriol; for Mean ΔCt (CtLL37 − CtGAPDH): alone or in combination; for LL37 expression (relative quantity): control cells = 1.00; for ΔΔCt (LL37): ΔCtcontrol−ΔCttreated; for Percentage of inhibition (LL37 expression): versus calcitriol stimulated control
Protocol: as §3

VEGF = test: Gene expression of VEGF by keratinocytes (real-time PCR); type: cell-based, human; conditions: NHEK; for Percentage of inhibition (VEGF expression): versus control cells
Protocol: Normal human epidermal keratinocytes (NHEK) were incubated in the presence of the complex of arabinogalactan (ARG)/lupin peptides (LUP) active agents at concentrations of 0.2%/0.02% alone or in combination.
as §1, with “(VEGF, FGF2, HIF1α, THBS1)” for “(MMP2, MMP9)”
as §2
The significance of the results was verified for the ΔCt values by a single-factor analysis of variance followed by a Dunnett's test.
The percentage of inhibition is calculated for VEGF, FGF2 and HIF1α: [(RQ(control)−RQ(active treatment))/RQ (control)]*100

[1] = system: Normal human dermal microvascular endothelial cells; test: Proliferation of endothelial cells in the presence of VEGF (PNPP viability); type: cell-based; conditions: for T24 h - %/control (without VEGF) T0 / Percentage of inhibition 24 h (proliferation induced by VEGF): 24 hours; for T24 h - %/control (without VEGF) T0 / T48 h - %/control (without VEGF) T0: in the presence of VEGF, PNPP signal, mean±standard deviation; for T24 h - %/control (without VEGF) T0 / Percentage of inhibition 24 h (proliferation induced by VEGF) / T48 h - %/control (without VEGF) T0 / Percentage of inhibition 48 h (proliferation induced by VEGF): ARG 0.2%, LUP 0.02%; for Percentage of inhibition 24 h (proliferation induced by VEGF) / Percentage of inhibition 48 h (proliferation induced by VEGF): alone or in combination; for T48 h - %/control (without VEGF) T0 / Percentage of inhibition 48 h (proliferation induced by VEGF): 48 hours; for stimulation of the growth of endothelial cells in relation to control cells: VEGF, p<0.01
Protocol: Normal human dermal microvascular endothelial cells were incubated for 24 or 48 hours in the absence (control) or in the presence of the arabinogalactan (ARG)/lupin peptides (LUP) active agents at concentrations of 0.2%/0.02% alone or in combination and in the presence of vascular endothelial growth factor (VEGF), the reference activator. At the end of incubation, the viability of the cells was evaluated by a spectrophotometric method: P-nitrophenyl phosphate (PNPP) is transformed into p-nitrophenol by phosphatases of viable cells and the absorbance at 405 nm of p-nitrophenol is directly proportional to the number of viable cells.
The results are expressed as the percentage of the “PNPP” signal of the control without VEGF at TO (mean±standard deviation).
The statistical significance of the differences between the “VEGF stimulated cells” and “VEGF+active agents” conditions was evaluated by a single-factor analysis of variance followed by a Holm-Sidak test.
The percentage of inhibition of proliferation is calculated according to the following equation: [(active treatment)−(VEGF stimulated)/(control without VEGF)−(VEGF stim)]*100 Results

[2] = NCTC 2544 keratinocytes, 24 hours preincubation then PMA 24 hours, culture supernatants
[3] = calcitriol versus control cells, p<0.001

CCCCCCCCCCCCCC(=O)O[C@@H]1[C@@H](C)[C@@]2(O)[C@@H](C=C(CO)C[C@]3(O)C(=O)C(C)=C[C@@H]23)[C@@H]2C(C)(C)[C@]12OC(C)=O [PMA] was tested. Which “IL8 (ng/ml)” value (interleukin-8 (IL8); [2]) did it give?
The value was 30.60 ± 1.888 $$$ ng/ml.

And the “ΔΔCt (MMP9)” value (MMP9; PMA stimulated)?
Its value is 6.55.

What about the “MMP9 expression (relative quantity)” value (MMP9; PMA stimulated, control cells = 1) of the same compound?
Its value is 93.70 $$$.

And the “Mean ΔCt (CtMMP9 − CtGAPDH)” value (MMP9; preincubated 24 hours, then PMA, ARG 0.2% + LUP 0.02%)?
Its value is 2.32.

What does the source list for C=C1/C(=C\C=C2/CCC[C@]3(C)[C@@H]([C@H](C)CCCC(C)(C)O)CC[C@@H]23)C[C@@H](O)C[C@@H]1O [calcitriol]?
Mean ΔCt (CtKLK5 − CtGAPDH) (kallikrein-5 (KLK5); NHEK, 24 hours, with calcitriol, ARG 0.2% + LUP 0.02%): 2.46; KLK5 expression (relative quantity) (kallikrein-5 (KLK5); NHEK, 24 hours, with calcitriol, control cells = 1.00): 2.49 $$$; ΔΔCt (KLK5) (kallikrein-5 (KLK5); NHEK, 24 hours, with calcitriol, ΔCtcontrol−ΔCttreated): 1.32; stimulation of the gene expression of kallikrein-5 by keratinocytes (kallikrein-5 (KLK5); [3]): 149%; Mean ΔCt (CtLL37 − CtGAPDH) (cathelicidin (LL37)): 11.02; LL37 expression (relative quantity) (cathelicidin (LL37)): 9.12 $$$; ΔΔCt (LL37) (cathelicidin (LL37)): 3.19; stimulation of the gene expression of LL37 by keratinocytes (cathelicidin (LL37); [3]): 812%

How did the “Mean ΔCt (CtVEGF − CtGAPDH)” value (VEGF; ARG 0.2%, LUP 0.02%, alone or in combination) turn out when arabinogalactan [ARG] was run?
Its value is 9.03.

What about the “VEGF expression (relative quantity)” value (VEGF; control cells = 1) of the same compound?
The value was 0.707 **.

What about the “ΔΔCt (VEGF)” value (VEGF; ΔCtcontrol−ΔCttreated) of the same compound?
The value was −0.5.

What about the “Percentage of inhibition (VEGF expression)” value (VEGF; ARG 0.2%, LUP 0.02%) of the same compound?
The value was 29.3%.

What about the “Percentage of inhibition (VEGF expression)” value (VEGF; ARG 0.2%, LUP 0.02%, listed as Arabinogalactan) of the same compound?
The value was 29%.

And the “Mean ΔCt (CtLL37 − CtGAPDH)” value (cathelicidin (LL37))?
Its value is 11.31.

And the “LL37 expression (relative quantity)” value (cathelicidin (LL37))?
Its value is 7.46 *.

What about the “ΔΔCt (LL37)” value (cathelicidin (LL37)) of the same compound?
Its value is 2.9.

What about the “Percentage of inhibition (LL37 expression)” value (cathelicidin (LL37)) of the same compound?
The value was 18.2%.

What about the “Percentage of inhibition (LL37 expression)” value (cathelicidin (LL37); listed as Arabinogalactan) of the same compound?
The value was 18%.

And the “T24 h - %/control (without VEGF) T0” value [1]?
Its value is 204.7 ± 7.1%.

And the “Percentage of inhibition 24 h (proliferation induced by VEGF)” value [1]?
Its value is 17.03%.

And the “Percentage of inhibition 24 h (proliferation induced by VEGF)” value ([1]; listed as arabinogalactan)?
The value was 17%.

And the “T48 h - %/control (without VEGF) T0” value [1]?
The value was 252.9 ± 6^ %.

What about the “Percentage of inhibition 48 h (proliferation induced by VEGF)” value [1] of the same compound?
Its value is 9.71%.

What about the “Percentage of inhibition 48 h (proliferation induced by VEGF)” value ([1]; listed as arabinogalactan) of the same compound?
The value was ~10%.

Which “T24 h - %/control (without VEGF) T0” value [1] does the source give for VEGF here?
The value was 213.2 ± 10.8%.

And the “T48 h - %/control (without VEGF) T0” value [1]?
Its value is 262.6 ± 5^ %.

And the “stimulation of the growth of endothelial cells in relation to control cells” value ([1]; after 24 hours of incubation)?
The value was 78.9%.

What about the “stimulation of the growth of endothelial cells in relation to control cells” value ([1]; after 48 hours of incubation) of the same compound?
Its value is 159%.

With C[C@@H]1C[C@H]2[C@@H]3CCC4=CC(=O)C=C[C@]4(C)[C@@]3(F)[C@@H](O)C[C@]2(C)[C@@]1(O)C(=O)CO [Dexamethasone, dexamethasone] as the compound, how does the inhibition at 0.1 µM (interleukin-8 (IL8); Homo sapiens, NCTC-2544, versus PMA stimulated control, NCTC 2544, read-out: percentage of inhibition of IL8 release induced by PMA) read?
The inhibition at 0.1 µM was 81%.

And the “IL8” value (interleukin-8 (IL8); [2])?
Its value is 5.967 ± 0.203 ng/mL.

What about the “percentage of inhibition of IL8 release induced by PMA” value (interleukin-8 (IL8); versus PMA stimulated control, NCTC 2544) of the same compound?
The value was 80.5%.
